The subject of one test is biofilms. Nature of the test: Applicant's testing of the amount of cis-2-decenoic acid needed for sufficient activity. Type of test: cell-based. To be noted: relative to the Article's 1.0 nM to 10 mM. The text has this:
An article titled A Fatty Acid Messenger Is Responsible for Inducing Dispersion in Microbial Biofilms, published in March 2009 in the Journal of Bacteriology (“Article”) is incorporated by reference herein in its entirety. The Article discloses that cis-2-decenoic acid may be used to disperse biofilms.

A further test has as its system Microbial Biofilms. The settings on record: as stated in the Article; cited from earlier work.

The structures appear in SMILES notation.

In the case of `CCCCCCC/C=C\C(=O)O` [cis-2-decenoic acid], in the test with biofilms, the “actual amount needed for sufficient activity” value is “several times more than that”.
For `CCCCCCC/C=C/C(=O)O` [trans-2-decenoic acid], the “amount needed for activity (biofilm dispersion)” value in the test with Microbial Biofilms was “in the mM range”.
